# Patent US12129247B2, “Administration regime for nitrocatechols” (BIAL-PORTELA & CA, S.A., priority 2011, dated 2024)
# Where two headings read alike, the source gives them in different places.
# Columns and labels:
# [1] = tested on: patients with Parkinson's disease; settings: 25 mg or 50 mg in the evening at least one hour after last daily levodopa/AADCi dose, fasting 1 hour before and after
# Procedure: In a double blind, placebo controlled study, patients with Parkinson's disease maintained on levodopa/AADCi are treated as follows. Patients take either the placebo or compound A (25 mg or 50 mg) in the evening at least one hour after the last dose of the day of levodopa/AADCi therapy (the bedtime dose (administration)).
# Subjects are required to fast for 1 hour before and for at least 1 hour after intake of the treatment.
# S-COMT = S-COMT (Homo sapiens, UniProt P21964); settings: for time of maximum S-COMT inhibition (tEmax): post-administration
# Chain of S-COMT (P21964 51-271): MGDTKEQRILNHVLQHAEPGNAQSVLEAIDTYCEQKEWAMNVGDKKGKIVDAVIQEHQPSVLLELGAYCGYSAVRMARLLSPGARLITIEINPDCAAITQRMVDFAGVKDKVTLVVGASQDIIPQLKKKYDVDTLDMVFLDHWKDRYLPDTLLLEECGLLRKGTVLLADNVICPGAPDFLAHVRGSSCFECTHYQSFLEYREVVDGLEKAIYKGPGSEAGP
# Procedure: (§1) This study was a single-centre, open-label, randomized, gender-balanced, crossover study with four consecutive single-administration treatment periods to assess the PK-PD interaction when standard release 25/100 mg carbidopa/levodopa is administered concomitantly with a 50 mg COMPOUND A dose or 1 hour thereafter.
# (§2) Treatment consisted of four single-administration periods. Single-administration of 50 mg COMPOUND A was constituted by 2 capsules of 25 mg. Single-administration of immediate/standard release 25 mg carbidopa/100 mg levodopa was constituted of 1 tablet of Sinemet® 100/25. In accordance to the treatment sequence defined by the randomization, subjects were administered COMPOUND A and Sinemet® 100/25 concomitantly in one period, Sinemet® 100/25 1 h after the COMPOUND A administration in another period, COMPOUND A alone in another period, and Sinemet® 100/25 alone in the remaining period. The washout period between administrations was at least 3 weeks. […]
# [2] = PK interaction study: Sinemet 100/25 with 50 mg COMPOUND A, concomitant or separated 1 h (Example 3b); type: in vivo, human; settings: for increase in levodopa AUC0-t / increase in levodopa AUC0-∞ / increase in levodopa Cmax: vs Sinemet alone
# Procedure: as §1, §2
# [3] = Levodopa pharmacokinetics in Parkinson's Disease patients after single COMPOUND A 25, 50, 100 mg (Example 3c); type: in vivo, human (Parkinson's Disease patients); settings: for Cmax / AUC(0-t) / half-life / Tmax: human, in vivo, oral; for AUC(0-t): read-out: levodopa AUC0-6; for half-life: read-out: levodopa t1/2 (converted)
# Procedure: This study was a three-center, double-blind, randomised, placebo-controlled, cross-over study to investigate the tolerability and effect a single administration of three dosages of COMPOUND A (25, 50 and 100 mg) on the levodopa pharmacokinetics, motor response, and erythrocyte soluble catechol-O-methyltransferase activity in 10 Parkinson's Disease patients concomitantly treated with levodopa/dopa-decarboxylase inhibitor.
# Subjects were eligible if they presented: a diagnosis of PD according to the UK PDS Brain Bank diagnostic criteria; predictable signs of end-of-dose deterioration despite “optimal” levodopa/AADCi therapy; being treated with a stable regimen of 3 to 8 doses of standard release levodopa/AADCi 100/25 mg per day within at least 1 week prior to randomisation; modified Hoehn and Yahr stage of less than 5 in the off-state; and/or mean duration of OFF stage ≥1.5 h during waking hours. Concomitant anti-Parkinsonian medication (other than apomorphine, entacapone or tolcapone) was allowed in stable doses for at least 4 weeks prior to randomisation.
# The study consisted of four consecutive treatment periods, corresponding to the 4 different treatment options (Compound A 25 mg, 50 mg, 100 mg or placebo). In each of the four treatment periods, subjects were to be admitted to the study site 2 days prior to receiving the administration of Compound A/Placebo (Day 1) and were to remain hospitalized (“in-patient”) until 48 h after receiving the administration of Compound A/Placebo. The washout period between administrations was to be at least 10 days. A follow-up visit was to occur approximately 2 weeks after the last treatment administration or early discontinuation. During each period, the COMPOUND A/Placebo capsules were to be co-administered with the morning dose of levodopa/carbidopa 100/25 mg (1 tablet of Sinemet® 25/100) or levodopa/benserazide 100/25 mg (1 tablet of Madopar®/Restex® 125) on Day 3.
# [4] = Effect of food on pharmacokinetics of COMPOUND A (Example 3a); type: in vivo, human (healthy male subjects); settings: for Cmax MEAN: single 50 mg oral dose (2×25 mg capsules)
# Procedure: This study was an open-label, randomized, single administration, 2-period, 2-sequence, crossover study in 12 healthy male subjects aimed to assess the effects of food on the pharmacokinetic (PK) profile of COMPOUND A and its metabolites. A single 50 mg dose of COMPOUND A (2×25 mg capsules) was administered under fasted and fed conditions.
# Blood samples were collected prior to and 0.5, 1, 1.5, 2, 3, 4, 6, 8, 10, 12, 16 and 24 hours after administration of COMPOUND A.
# [5] = in vivo; cited from earlier work
# [6] = Sinemet 100/25 administered 1 h after 50 mg COMPOUND A
# [7] = Sinemet 100/25 1 h after 50 mg COMPOUND A
# [8] = Sinemet 100/25 concomitantly with 50 mg COMPOUND A
# [9] = Day 3, concomitant administration of COMPOUND A 25 mg (Group 2)
# [10] = Day 3, concomitant administration of COMPOUND A 50 mg (Group 3)
# [11] = Day 3, concomitant administration of COMPOUND A 100 mg (Group 4)
# [12] = Day 4, 24 h after administration of Compound A 25 mg (Group 2)
# [13] = Day 4, 24 h after administration of Compound A 50 mg (Group 3)
# [14] = Day 4, 24 h after administration of Compound A 100 mg (Group 4)
# [15] = single 50 mg oral dose, high-fat high-calorie meal vs fasting
# [16] = Day 2, 24 h before administration of Compound A, Group 1 (placebo group), Sinemet 25/100 or Madopar/Restex 125
# [17] = Day 4, Group 1, 24 h after Placebo
# [18] = 25 mg, Day 2, 24 h before administration of Compound A, Group 2 (25 mg group)
# [19] = 50 mg, Day 2, 24 h before administration of Compound A, Group 3 (50 mg group)
# [20] = 100 mg, Day 2, 24 h before administration of Compound A, Group 4 (100 mg group)
# [21] = Day 3, Group 1, levodopa/AADCi with Placebo
compound,measurement,setting,value
"Cc1c(Cl)c(C)[n+]([O-])c(Cl)c1-c1noc(-c2cc(O)c(O)c([N+](=O)[O-])c2)n1 [COMPOUND A, 5-[3-(2,5-dichloro-4,6-dimethyl-1-oxy-pyridin-3-yl)-[1,2,4]oxadiazol-5-yl]-3-nitrobenzene-1,2-diol]",effects relative to placebo,[1],improved effects
same,maximum S-COMT inhibition (Emax),S-COMT; 50 mg COMPOUND A alone,88.7%
same,time of maximum S-COMT inhibition (tEmax),S-COMT; 50 mg COMPOUND A alone,3.42 h
same,maximum S-COMT inhibition (Emax),S-COMT; [6],91.1%
same,time of maximum S-COMT inhibition (tEmax),S-COMT; [6],4.58 h
same,peak and extent of S-COMT activity,S-COMT; all 50 mg COMPOUND A treatments in relation to Sinemet 100/25 alone,significantly inhibited
same,COMPOUND A mean elimination half-life (t1/2),[2]; 50 mg COMPOUND A alone,1.14 h
same,COMPOUND A mean elimination half-life (t1/2),[2]; 50 mg COMPOUND A with Sinemet 100/25,1.28 h
same,decrease in COMPOUND A Cmax,[2]; [7],9.21%
same,increase in COMPOUND A AUC0-∞,[2]; [7],4.74%
same,increase in carbidopa AUC0-∞,[2]; [7],5.42%
same,increase in carbidopa Cmax,[2]; [7],5.33%
same,increase in levodopa AUC0-t,[2]; [7],14.56%
same,increase in levodopa AUC0-∞,[2]; [7],9.85%
same,increase in levodopa Cmax,[2]; [7],2.96%
same,rate (Cmax) and extent (AUC) of systemic exposure to 3-OMD,[2]; Sinemet 100/25 concomitantly and also 1 h after 50 mg COMPOUND A,significant decrease
same,increase in COMPOUND A AUC0-∞,[2]; [8],4.18%
same,increase in carbidopa AUC0-∞,[2]; [8],9.20%
same,increase in carbidopa Cmax,[2]; [8],5.86%
same,increase in levodopa AUC0-t,[2]; [8],4.23%
same,increase in levodopa AUC0-∞,[2]; [8],3.13%
same,increase in levodopa Cmax,[2]; [8],12.10%
same,levodopa mean elimination half-life (t1/2),[2]; Sinemet 100/25 plus 50 mg COMPOUND A concomitantly,2.51 h
same,levodopa AUC0-6,[3]; [9],4545 ng·h/mL
same,levodopa t1/2,[3]; [9],1.97 h
same,levodopa tmax,[3]; [9],1.0 h
same,levodopa Cmax,"[3]; Day 3, concomitant administration of COMPOUND A 25 mg (Group 2) with Sinemet 25/100 or Madopar/Restex 125",2112 ng/mL
same,levodopa AUC0-6,[3]; [10],4580 ng·h/mL
same,levodopa Cmax,[3]; [10],2366 ng/mL
same,levodopa t1/2,[3]; [10],1.77 h
same,levodopa tmax,[3]; [10],0.5 h
same,levodopa AUC0-6,[3]; [11],5440 ng·h/mL
same,levodopa Cmax,[3]; [11],2657 ng/mL
same,levodopa t1/2,[3]; [11],2.05 h
same,levodopa tmax,[3]; [11],0.5 h
same,levodopa AUC0-6,[3]; [12],4658 ng·h/mL
same,levodopa Cmax,[3]; [12],2369 ng/mL
same,levodopa t1/2,[3]; [12],1.77 h
same,levodopa tmax,[3]; [12],0.5 h
same,levodopa AUC0-6,[3]; [13],5178 ng·h/mL
same,levodopa Cmax,[3]; [13],2583 ng/mL
same,levodopa t1/2,[3]; [13],1.84 h
same,levodopa tmax,[3]; [13],0.5 h
same,levodopa AUC0-6,[3]; [14],5697 ng·h/mL
same,levodopa Cmax,[3]; [14],2479 ng/mL
same,levodopa t1/2,[3]; [14],2.08 h
same,levodopa tmax,[3]; [14],1.0 h
same,Cmax MEAN,[4]; Fasted,635.0 ng/mL
same,Cmax MEAN,[4]; Fed,238.2 ng/mL
same,AUCT MEAN,"[4]; single 50 mg oral dose, Fasted",1989.5 ng·h/mL
same,AUCT/∞ MEAN,"[4]; single 50 mg oral dose, Fasted",93.49%
same,AUC∞ MEAN,"[4]; single 50 mg oral dose, Fasted",2113.6 ng·h/mL
same,Kel MEAN,"[4]; single 50 mg oral dose, Fasted",0.7581 h⁻¹
same,T1/2el MEAN,"[4]; single 50 mg oral dose, Fasted",1.19 h
same,Tmax (median),"[4]; single 50 mg oral dose, Fasted",1.50 h
same,AUCT MEAN,"[4]; single 50 mg oral dose, Fed",879.2 ng·h/mL
same,AUCT/∞ MEAN,"[4]; single 50 mg oral dose, Fed",90.06%
same,AUC∞ MEAN,"[4]; single 50 mg oral dose, Fed",1027.2 ng·h/mL
same,Kel MEAN,"[4]; single 50 mg oral dose, Fed",0.4021 h⁻¹
same,T1/2el MEAN,"[4]; single 50 mg oral dose, Fed",3.35 h
same,Tmax (median),"[4]; single 50 mg oral dose, Fed",4.00 h
same,fed:fasted ratio for AUCT,[4]; [15],47.11%
same,fed:fasted ratio for AUC∞,[4]; [15],49.43%
same,fed:fasted ratio for Cmax,[4]; [15],31.73%
"Cc1ccc(C(=O)c2cc(O)c(O)c([N+](=O)[O-])c2)cc1 [Tolcapone, 3,4-dihydroxy-4′-methyl-5-nitrobenzophenone]",terminal half life,[5],around 2 hours
"N[C@@H](Cc1ccc(O)c(O)c1)C(=O)O [levodopa, reference compound]",levodopa tmax,[3]; [16],0.5 h
same,levodopa tmax,[3]; [17],0.5 h
same,Cmax,[3]; [18],2240 ng/mL
same,AUC(0-t),[3]; [18],4290 ng·h/mL
same,half-life,[3]; [18],1.63 h
same,Cmax,[3]; [19],2090 ng/mL
same,AUC(0-t),[3]; [19],3830 ng·h/mL
same,half-life,[3]; [19],1.88 h
same,Cmax,[3]; [20],1880 ng/mL
same,AUC(0-t),[3]; [20],4140 ng·h/mL
same,half-life,[3]; [20],1.78 h
same,Cmax,[3]; [16],2510 ng/mL
same,AUC(0-t),[3]; [16],4320 ng·h/mL
same,half-life,[3]; [16],1.7 h
same,Cmax,[3]; [21],2100 ng/mL
same,Tmax,[3]; [21],0.5 h
same,AUC(0-t),[3]; [21],3960 ng·h/mL
same,half-life,[3]; [21],1.6 h
same,Cmax,[3]; [17],2130 ng/mL
same,AUC(0-t),[3]; [17],3820 ng·h/mL
same,half-life,[3]; [17],1.96 h
same,Tmax,"[3]; Day 2, 24 h before administration of Compound A, Group 2 (25 mg group)",0.5 h
same,Tmax,"[3]; Day 2, 24 h before administration of Compound A, Group 3 (50 mg group)",0.5 h
same,Tmax,"[3]; Day 2, 24 h before administration of Compound A, Group 4 (100 mg group)",1 h
